One data set in a line: Solubility in DMSO. It counts as physicochemical. The conditions noted are these: the reason cytotoxicity was not tested.
The subject of data set [1] is human colon carcinoma Caco-2 cells. The data set can be described thus: WST-1 cell proliferation assay, Caco-2 cells. It counts as cell-based. As to conditions: WST-1, 72 h; for IC50: concentrations 50-200 µM, mean ± SD, na = not active in range tested. Here is the method: (§1) Human promyelocytic leukemia HL-60 cells and human colon cancer cell line Caco-2 were obtained from the American Type Culture Collection (Manassas, VA, USA). […] (Institute of Biotechnology, Faculty of Environment and Natural Sciences, Brandenburg University of Technology Cottbus-Senftenberg, Senftenberg, Germany)[34] were cultured in DMEM medium supplemented with 10% fetal bovine serum (FBS, Invitrogen, Carlsbad, USA), 2 mM glutamine and antibiotics (complete DMEM). Cells (4 × 10^3/well) were grown for 24 h in 96-well plates (Sarstedt, Germany) in appropriate complete medium at 37 °C and atmosphere containing 5% CO2. […] After indicated periods of time, WST-1 mixture was added to each well, and the cells were cultured for additional 6 h. The absorbance at 450 nm was measured on an EnSpire 2300 Multilabel Reader (Perkin-Elmer, USA), and data were analyzed using the program EnSpire 9.0 (Perkin-Elmer, USA). The experiments were performed in triplicates and repeated at least three times independently.
(Formazan colour is commonly taken as a measure of viable cells.)

Data set [2] relates to human promyelocytic leukemia HL-60 cells. Description: WST-1 cell proliferation assay, HL-60 cells. In kind it is cell-based. As to conditions: WST-1, 72 h; for IC50: concentrations 50-200 µM, mean ± SD, na = not active in range tested. The protocol:
as §1

For data set [3], the system named is porcine epithelial intestinal IPEC-J2 cells. Description: WST-1 cell proliferation assay, IPEC-J2 cells. It counts as cell-based. As to conditions: Sus scrofa, WST-1, 72 h, concentrations 50-200 µM, mean ± SD, na = not active in range tested. The protocol: as §1, with “independently. Results were presented as mean IC50 (concentration of the tested compound, that inhibits cell proliferation by 50%) ± standard deviation.” for “independently.”

The text below walks through data of article PMC6338774 (Scientific Reports, 2019).

For the molecule `CCCCCCCCCCCCCCCC(=O)OC[C@H](COP(=O)([O-])OCC[N+](C)(C)C)OC(=O)C(C)c1ccc2cc(OC)ccc2c1` (stereo partly drawn) [Compound 13, 1-Palmitoyl-2-[2′S-(6″-methoxynaphthalenyl)]propanoyl-sn-glycero-3-phosphocholine], in “Solubility in DMSO”, the “solubility in DMSO” value is recorded as “poor solubility”.
The term IC50 denotes the concentration needed to halve the response being measured. The low end stands for inhibition by little substance, the high end for a need for much substance. In turn, `COc1ccc2cc([C@H](C)C(=O)OC[C@@H](O)COP(=O)([O-])OCC[N+](C)(C)C)ccc2c1` [Compound 8, 1-[2′S-(6″-Methoxynaphthalenyl)]propanoyl-2-hydroxy-sn-glycero-3-phosphocholine] yielded an IC50 in data set [1] of 115 ± 26.1 µM.
With `COc1ccc2cc([C@H](C)C(=O)O)ccc2c1` [Compound 2, naproxen, reference compound], the IC50 worked out at 141 ± 8.51 µM in data set [2] (Homo sapiens, HL-60) and 78.6 ± 15.9 µM in data set [3].
Turning to `CC(C)Cc1ccc(C(C)C(=O)O)cc1` (centres unmarked) [Compound 1, ibuprofen, reference compound], the IC50 came to 114 ± 10.4 µM in data set [1] (Homo sapiens, Caco-2); 106 ± 17.4 µM in data set [2] (Homo sapiens, HL-60); 155 ± 7.57 µM in data set [3]. In data set [2], the “concentration up to which non-toxic, HL-60 cells” value is given as at most 100 µM.
Take `CC(C)Cc1ccc([C@H](C)C(=O)OC[C@@H](O)COP(=O)([O-])OCC[N+](C)(C)C)cc1` [Compound 7, 1-[2′S-(4″-Isobutylphenyl)]propanoyl-2-hydroxy-sn-glycero-3-phosphocholine]: the midpoint of inhibition in data set [1], the IC50, lay at 122 ± 2.76 µM. Moreover, the “concentration up to which non-toxic, HL-60 cells” value in data set [2] came out at 200 µM.
Consider `COc1ccc2cc(C(C)C(=O)OC[C@H](COP(=O)([O-])OCC[N+](C)(C)C)OC(=O)C(C)c3ccc4cc(OC)ccc4c3)ccc2c1` (mixture of isomers) [Compound 16, 1,2-Di-[2′-(6″-methoxynaphthalenyl)]propanoyl-sn-glycero-3-phosphocholine], for which the IC50 in data set [1] (Homo sapiens, Caco-2) is 68.7 ± 18.4 µM; in data set [2] (Homo sapiens, HL-60) it was 80.1 ± 10.9 µM; in data set [3], 58.4 ± 5.67 µM.
For `CCCCCCCCCCCCCCCC(=O)OC[C@H](COP(=O)([O-])OCC[N+](C)(C)C)OC(=O)C(C)c1ccc(CC(C)C)cc1` (mixture of isomers) [Compound 12, 1-Palmitoyl-2-[2′-[4″-isobutylphenyl)]propanoyl-sn-glycero-3-phosphocholine] the same measures were 135 ± 18.2 µM, 77.4 ± 18.2 µM and 79.2 ± 7.86 µM.
On the same counts, the results for `CC(C)Cc1ccc(C(C)C(=O)OC[C@H](COP(=O)([O-])OCC[N+](C)(C)C)OC(=O)C(C)c2ccc(CC(C)C)cc2)cc1` (mixture of isomers) [Compound 15, 1,2-Di-[2′-(4″-isobutylphenyl)]propanoyl-sn-glycero-3-phosphocholine] are 81.3 ± 17.3 µM, 64.5 ± 10.4 µM and 83.4 ± 1.51 µM.
`CCCCCCCCCCCCCCCC(=O)O[C@H](COC(=O)C(C)c1ccc2cc(OC)ccc2c1)COP(=O)([O-])OCC[N+](C)(C)C` (mixture of isomers) [Compound 10, 1-[2′-(6″-Methoxynaphthalenyl)]propanoyl-2-palmitoyl-sn-glycero-3-phosphocholine]: the “concentration up to which non-toxic, Caco-2 cells” value in data set [1] is recorded as at most 200 µM. In data set [2], this molecule showed an IC50 of 27.1 ± 5.13 µM.
Take `CCCCCCCCCCCCCCCC(=O)O[C@H](COC(=O)C(C)c1ccc(CC(C)C)cc1)COP(=O)([O-])OCC[N+](C)(C)C` (mixture of isomers) [Compound 9, 1-[2′-(4″-Isobutylphenyl)]propanoyl-2-palmitoyl-sn-glycero-3-phosphocholine]: the IC50 was 125 ± 3.87 µM in data set [1] and 67.1 ± 10.9 µM in data set [2].
